Some test systems named below: MALME-3M melanoma; OVCAR-4 ovarian; SNB-19 CNS; XF 498 CNS; CAKI-1 renal; DLD-1 colon; HOP-18 NSCLC; NCI/ADR-RES ovarian; T-47D breast; PC-3 prostate; MDA-MB-435.
What all share (assay): growth of human tumour cells (NCI), 48 h

Molecules are shown by their SMILES. Where “and” joins values, the source holds several entries; their conditions need not be identical. Identical values can stand only once.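 Each compound was tested at five concentrations against cells in 96-well plates for 48 hours. GI50 is the concentration that inhibits growth by half. TGI is the concentration that stops growth completely.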

Consider `CN1c2ccccc2N(C(=O)c2ccc([N+](=O)[O-])cc2)C(CC(=O)O)c2cccn21` (centres undefined), for which the TGI with MALME-3M melanoma, in the experiment on OVCAR-4 ovarian, in the experiment with SNB-19 CNS, in the experiment on XF 498 CNS, with CAKI-1 renal and with DLD-1 colon was over 100 µM each time.
Regarding `Cn1c2c(c3ccccc31)CCN(CCCCN1CCCCC1)C2=O`, the TGI in the experiment on OVCAR-4 ovarian, in the experiment with SNB-19 CNS, in the experiment on XF 498 CNS, with HOP-18 NSCLC, in the experiment on CAKI-1 renal and in the experiment with DLD-1 colon was over 100 µM each time.
For the compound `O=C(/C=C/c1cc(Cl)cc(Cl)c1O)c1cccc(O)c1`, the TGI is 87.3 µM with MALME-3M melanoma; over 100 µM with OVCAR-4 ovarian; over 100 µM in the experiment with SNB-19 CNS; over 100 µM with HOP-18 NSCLC; over 100 µM in the experiment with CAKI-1 renal; over 100 µM in the experiment with DLD-1 colon.
For `O=C(NCCCCCCCCCCCCNC(=O)c1cccc2ccccc12)c1cccc2ccccc12`, the TGI in the experiment with MALME-3M melanoma was over 100 µM; with OVCAR-4 ovarian, 20.5 µM; in the experiment with SNB-19 CNS, over 73.6 µM; in the experiment on XF 498 CNS, over 75.8 µM; in the experiment on HOP-18 NSCLC it was over 100 µM; with CAKI-1 renal it was 68.2 µM. The compound further displayed a TGI with DLD-1 colon of over 100 µM.
Take `COC(=O)CCC(NC(=S)N/N=C(\C)c1cnc2ccccc2n1)C(=O)OC` (centres undefined): the TGI in the experiment on MALME-3M melanoma, with OVCAR-4 ovarian, in the experiment on SNB-19 CNS, with XF 498 CNS, in the experiment on HOP-18 NSCLC and in the experiment with DLD-1 colon was over 100 µM each time.
Regarding `CN1C(=O)CCC1(O)C1C=CC=CC1` (centres undefined), the TGI with MALME-3M melanoma, with OVCAR-4 ovarian, in the experiment with SNB-19 CNS, in the experiment with XF 498 CNS, with CAKI-1 renal and in the experiment on DLD-1 colon was over 100 µM throughout.
In the case of `COC(=O)C(C(=O)C(=O)Nc1c(C)cccc1C)c1cnc2ccccc2n1` (centres undefined), the TGI in the experiment with MALME-3M melanoma, in the experiment with OVCAR-4 ovarian, in the experiment on SNB-19 CNS, with XF 498 CNS, in the experiment on HOP-18 NSCLC and in the experiment with CAKI-1 renal was over 100 µM each time.
For `CN(C)C=Nc1ccn(CCO)c(=O)n1`, the TGI with MALME-3M melanoma, in the experiment on OVCAR-4 ovarian, in the experiment with SNB-19 CNS, with HOP-18 NSCLC and in the experiment on DLD-1 colon was over 100 µM in each case.
Turning to `CC(=O)OCC1OC(n2cc(F)c(=O)[nH]c2=O)C(NC(=O)N(CCCl)N=O)C(OC(C)=O)C1OC(C)=O` (centres undefined), the TGI with MALME-3M melanoma, in the experiment on OVCAR-4 ovarian, with SNB-19 CNS, with XF 498 CNS, in the experiment on HOP-18 NSCLC and with CAKI-1 renal was over 100 µM in each case. Moreover, the TGI in the experiment with DLD-1 colon is over 100 µM.
As for `C/C(=C1/N=C(c2cc([N+](=O)[O-])ccc2Cl)N(c2cccc(C)c2)C1=O)c1cc2ccccc2oc1=O`, the TGI is over 100 µM with MALME-3M melanoma; over 100 µM in the experiment with SNB-19 CNS; 81.2 µM with XF 498 CNS; over 100 µM with HOP-18 NSCLC; over 100 µM in the experiment on CAKI-1 renal; over 100 µM with DLD-1 colon.
`CC1=Nc2ccccc2S/C1=C(/C)NNS(=O)(=O)c1ccc(C)cc1`: the TGI with MALME-3M melanoma, in the experiment with OVCAR-4 ovarian, with SNB-19 CNS, with HOP-18 NSCLC and in the experiment on CAKI-1 renal was over 100 µM each time.
Turning to `N#Cc1c(-c2ccc(Cl)c(Cl)c2)c(-c2ccc(Cl)c(Cl)c2)nn(CC(=O)O)c1=O`, the TGI with MALME-3M melanoma is over 100 µM; in the experiment with OVCAR-4 ovarian, over 100 µM; with XF 498 CNS it was 98.4 µM; with HOP-18 NSCLC it was over 100 µM; in the experiment on CAKI-1 renal, over 100 µM; with DLD-1 colon it was over 100 µM.
With `CC(=O)O[C@H]1C(=O)[C@@]2(C)C(C(OC(=O)c3ccccc3)[C@]3(O)C[C@H](OC(=O)C(OC(=O)CCCC(=O)NCCCN(C)C)C(NC(=O)c4ccccc4)c4ccccc4)C(C)=C1C3(C)C)C1(OC(C)=O)COC1C[C@@H]2O` (some centres undefined), the TGI is 20.8 µM with MALME-3M melanoma; over 87.9 µM with OVCAR-4 ovarian; over 100 µM with SNB-19 CNS; 70.7 µM with NCI/ADR-RES ovarian; under 0.0171 µM in the experiment on XF 498 CNS; 47.8 µM with T-47D breast. The TGI in the experiment with HOP-18 NSCLC is 35 µM; with CAKI-1 renal, over 100 µM; in the experiment on DLD-1 colon it was over 40.9 µM; in the experiment on PC-3 prostate, 43 µM.
For `COc1cc2c(cc1OC)[C@@H](Nc1ccc(C#N)cc1)C1COC(=O)[C@@H]1C2c1cc(OC)c(O)c(OC)c1` (some centres undefined), the GI50 is 1.36 µM and 2.47 µM in the experiment with MALME-3M melanoma; 19.1 µM and 26.8 µM in the experiment on OVCAR-4 ovarian; 0.223 µM and 0.166 µM in the experiment with CAKI-1 renal. Also, the TGI in the experiment with MALME-3M melanoma is 70.7 µM and 44.2 µM; in the experiment with OVCAR-4 ovarian it was 75.1 µM and > 100 µM; in the experiment with MDA-MB-435 it was over 100 µM; in the experiment with SNB-19 CNS, 95 µM; in the experiment on NCI/ADR-RES ovarian, over 100 µM; in the experiment with T-47D breast, over 100 µM. In addition, the results for the TGI with HOP-18 NSCLC, with DLD-1 colon and in the experiment with PC-3 prostate were 95 µM, 9.29 µM and over 100 µM, respectively.
For `N#CCCN(c1ccc(C=Nc2ccccc2)cc1)S(=O)(=O)c1ccccc1`, the TGI in the experiment on MALME-3M melanoma, in the experiment with OVCAR-4 ovarian, with SNB-19 CNS, in the experiment with XF 498 CNS, in the experiment on CAKI-1 renal and with DLD-1 colon was over 100 µM throughout.
For the compound `C[C@@H](NC1CCCC[C@H]1O)c1ccccc1` (some centres undefined), the TGI with MALME-3M melanoma, in the experiment on OVCAR-4 ovarian, in the experiment on SNB-19 CNS, with XF 498 CNS, with HOP-18 NSCLC and in the experiment on DLD-1 colon was over 100 µM throughout.
With `CCC(C)CCOC(=O)c1ccc(N=Cc2ccc(C=Nc3ccc(C(=O)OCCC(C)CC)cc3)cc2)cc1` (centres undefined), the TGI in the experiment with MALME-3M melanoma, with OVCAR-4 ovarian, in the experiment on SNB-19 CNS, in the experiment with HOP-18 NSCLC, in the experiment on CAKI-1 renal and with DLD-1 colon was over 100 µM each time.
As for `Cc1nc(-n2nc(-c3ccccc3)cc2-c2ccccc2)sc1C(=O)/C=C/c1ccc(/C=C/C(=O)c2sc(-n3nc(-c4ccccc4)cc3-c3ccccc3)nc2C)cc1`, the TGI with MALME-3M melanoma was 40.2 µM; with OVCAR-4 ovarian it was over 100 µM; in the experiment with SNB-19 CNS it was 42 µM; in the experiment on XF 498 CNS, 41.4 µM; with CAKI-1 renal, 51.6 µM; in the experiment with DLD-1 colon, 44.8 µM.
On to `CC(C)(CN1CCCCC1)C(=O)/C=C/c1ccc(/C=C/C(=O)C(C)(C)CN2CCCCC2)cc1`, for which the TGI in the experiment with MALME-3M melanoma was determined as 2.24 µM; in the experiment with OVCAR-4 ovarian, 1.47 µM; with MDA-MB-435, 0.984 µM; with SNB-19 CNS, 3.15 µM; with NCI/ADR-RES ovarian, 2.36 µM; in the experiment on XF 498 CNS, 1.28 µM. Besides, the TGI was 1.65 µM in the experiment with T-47D breast; 2.57 µM in the experiment with HOP-18 NSCLC; 0.904 µM with CAKI-1 renal; 0.323 µM in the experiment with DLD-1 colon; 0.82 µM with PC-3 prostate.
Regarding `CN(CCN1C(=O)c2cc([N+](=O)[O-])cc3cc([N+](=O)[O-])cc(c23)C1=O)CCN1C(=O)c2cc([N+](=O)[O-])cc3cc([N+](=O)[O-])cc(c23)C1=O`, the TGI with MALME-3M melanoma was 4.31 µM; in the experiment on OVCAR-4 ovarian, over 100 µM; in the experiment on SNB-19 CNS, over 100 µM; with XF 498 CNS, 23.1 µM; in the experiment with HOP-18 NSCLC, over 100 µM; in the experiment on CAKI-1 renal, 0.618 µM. This compound also gave a TGI with DLD-1 colon of 18.8 µM.
With `Nc1ncnc2c1ncn2[C@]1(CO)C=C(CO)C(O)C1O` (some centres undefined), the TGI with MALME-3M melanoma, in the experiment with OVCAR-4 ovarian, with SNB-19 CNS, in the experiment with XF 498 CNS, in the experiment on HOP-18 NSCLC and in the experiment on CAKI-1 renal was over 100 µM throughout. In the experiment on DLD-1 colon, this compound had a TGI of over 100 µM.
Turning to `Cc1cn(C2CC(O)C(COC(=O)c3ccccc3)O2)c(=O)[nH]c1=O` (centres undefined), the TGI in the experiment on MALME-3M melanoma, with OVCAR-4 ovarian, with SNB-19 CNS, with XF 498 CNS, in the experiment on HOP-18 NSCLC and with CAKI-1 renal was over 100 µM throughout. The compound also gave a TGI in the experiment on DLD-1 colon of over 100 µM.
As to `Cc1ccc(S(=O)(=O)OCCn2cnc3nc(NC(=O)c4ccccc4)[nH]c(=O)c32)cc1`, the TGI with MALME-3M melanoma, in the experiment on OVCAR-4 ovarian, in the experiment on SNB-19 CNS, with HOP-18 NSCLC, in the experiment with CAKI-1 renal and with DLD-1 colon was over 100 µM throughout.
Consider `COc1ccc(C/C(=N/O)C(=O)NCCc2cc(Br)c(OCCCN(C)C)c(Br)c2)cc1Br`, for which the TGI with MALME-3M melanoma was found to be 44.6 µM; in the experiment with OVCAR-4 ovarian, 38.8 µM; in the experiment on SNB-19 CNS, 32.6 µM; in the experiment on XF 498 CNS, 25.6 µM; in the experiment with HOP-18 NSCLC, 0.0986 µM; in the experiment on CAKI-1 renal, 69.4 µM. Also, the TGI in the experiment with DLD-1 colon was 25.3 µM.
Turning to `O=C(N/C(=C\c1ccc(Cl)cc1)c1nc2ccccc2[nH]1)c1ccccc1`, the TGI with MALME-3M melanoma is over 100 µM; in the experiment on OVCAR-4 ovarian, 37.9 µM; in the experiment with SNB-19 CNS, 88 µM; with XF 498 CNS, 36.9 µM; in the experiment on HOP-18 NSCLC, 50.3 µM; with CAKI-1 renal, 54.5 µM. In the experiment on DLD-1 colon, the TGI came to 52.2 µM.
In the case of `CCCCCN(CCCCC)C(=O)[C@@H](CCC(=O)O)NC(=O)c1cc2ccccc2[nH]1`, the TGI in the experiment with MALME-3M melanoma was over 100 µM; in the experiment on OVCAR-4 ovarian, over 100 µM; in the experiment with SNB-19 CNS it was over 100 µM; in the experiment with XF 498 CNS, 71.3 µM; in the experiment with CAKI-1 renal it was 67.6 µM; with DLD-1 colon it was over 100 µM.
On to `CC(C)(O)[C@@H]1CC[C@@]2(C)CCCC(O)C2(O)C1` (some centres undefined), for which the TGI in the experiment on MALME-3M melanoma, in the experiment with OVCAR-4 ovarian, with SNB-19 CNS, in the experiment on XF 498 CNS, in the experiment with HOP-18 NSCLC and with CAKI-1 renal was over 100 µM throughout. Also, the TGI in the experiment with DLD-1 colon is over 100 µM.
For `O=C1NC(Cc2ccc(O)cc2)C(=O)N2CCCC12` (centres undefined), the TGI in the experiment on MALME-3M melanoma, in the experiment on OVCAR-4 ovarian, with SNB-19 CNS, in the experiment with HOP-18 NSCLC, in the experiment on CAKI-1 renal and with DLD-1 colon was over 100 µM in each case.

These data come from PubChem BioAssay (NCI).
